Results on 1 molecule are retold here after publication PMC12072186, “A Novel Small Molecule Enhances Stable Dopamine Delivery to the Brain in Models of Parkinson’s Disease” (International Journal of Molecular Sciences, 2025).

“Also recorded” adds a separate entry of the source.

Series [1] concerns tyrosine hydroxylase (TH+)-positive neurons. Put plainly: Tyrosine hydroxylase immunohistochemistry (DAB staining). It counts as in vivo, mouse. Conditions: vs DMSO. As for the experimental part: To further examine whether Pegasus has any effects on DA-producing neurons, we performed immunohistochemistry to visualize tyrosine hydroxylase (TH+)-positive neurons in both the SN and striatum in Pegasus-treated versus untreated mice. TH is a rate-limiting enzyme in the biosynthesis of DA in the brain. We used DAB staining to highlight the TH+ neurons.
Animals were deeply anesthetized with a mixture of Xylazine and Ketamine (8:80 mg/kg), washed with normal saline for 1 min, and then perfused with 4% paraformaldehyde (PFA) for 15 min. The brains were dissected out and immediately stored in 4% PFA for 24 h at 4 °C, and then transferred to 30% sucrose at 4 °C for 48 h. The brains were cut using a cryostat microtome into 20 µm thick coronal sections and stored at −20 °C. Staining for tyrosine hydroxylase (TH) was probed with anti-tyrosine hydroxylase antibody (Cat No: AB152, Sigma-Aldrich, St. Louis, MO, USA). GFAP (glial fibrillary acidic protein) was stained with anti-GFAP monoclonal antibody (Cat No:MS1376P1, Fisher Scientific, Newington, NH, USA). […] TH^+ cells were counted in a stereology-like manner across multiple visual fields (typically 20 fields) in a single animal, and the same procedure was repeated on several animals to obtain the best approximation of TH staining.

Another series relates to caspase-3 activity. The series is described as follows: Tissue toxicity via caspase-3 activity assay. Conditions: liver, brain, kidney, lung, spleen, heart, serum, small intestine; young TgA53T mice; vs naïve, DMSO and D5. It counts as in vivo. The method, then:
We further verified cell death via caspase-3 activity assays of the liver, brain, kidney, lung, spleen, heart, serum, and small intestine in young TgA53T mice (6–7 months old).
(§1) Tissue toxicity was assessed in young (6–7-month-old) and old (12–13-month-old) A53T mice. The mice received daily i.p. escalating doses of Pegasus or control D5 (tetracycline derivative with no DA) vs. DMSO of 10, 25, 50, and 100 mg/kg for 4 days with each dose up to 16 days, and tissues were analyzed via caspase-3 activity. The caspase-3 activity assay (EnzChek® Invitrogen, Waltham, MA, USA) was conducted according to manufacturer’s protocols as we previously described.

The subject of another series is alpha-synuclein. On the set-up: method as in PMID 38991155. Conditions: cited from earlier work.
Another series concerns human alpha-synuclein. The series is described as follows: Human alpha-synuclein ELISA of brain lysates. Format: in vivo, mouse. The conditions noted are these: brain lysates of old (11–12-month-old) TgA53T mice, vs DMSO. The method, then:
The concentration of CNS alpha-synuclein via ELISA was reduced in the brain lysates of old (11–12-month-old) TgA53T mice treated with Pegasus compared to DMSO-treated controls (Figure 5I).
The levels of DA and its metabolite HVA were measured using a commercially available ELISA (Cat No. MBS269234 and Cat# MBS1601074, MyBiosource, San Diego, CA, USA) on serum and brain tissue soluble extracts. Human alpha-synuclein was measured via a human-specific ELISA (Cat# 448607, BioLegend, San Diego, CA, USA) according to the manufacturer’s protocol.
On the technique in general: ELISA stands for enzyme-linked immunosorbent assay.

In series [2] the test system is TgA53T mice. Put plainly: Tolerated dose, dose escalation study. It counts as in vivo. As for the experimental part: Pegasus synthesis and the D5 control derivative of tetracycline were previously described. Pegasus is a 652.2 Da small molecule that consists of one DA conjugated to tetracycline via a molecular linker (Figure 1A). […] We determined a tolerated dose of Pegasus in young (6–7 months old) and old (11–12 months old) TgA53T mice (IP, once daily) treated with an ascending dose of Pegasus of 10 mg/kg, 50 mg/kg, and 75 mg/kg for 4 consecutive days (Figure 1B). Pegasus was tolerated up to 75 mg/kg without visible adverse effects. […] We then reduced the dose to 75 mg/kg for another week.
as §1

Series [3] has as its system DA and its metabolite HVA. The series is described as follows: DA and HVA ELISA on serum and brain extracts of TgA53T mice. Format: in vivo, mouse. The conditions noted are these: 50 mg/kg, 12–13-month-old TgA53T mice, vs DMSO.
Series [4] deals with TgA53T mice. Put plainly: Rotarod test in TgA53T mice. It counts as in vivo, mouse. (In general: In the rotarod test animals must keep their balance on a rotating rod.)
Series [5] deals with MPTP-treated C57BL/6 mice. Put plainly: Grip strength test in MPTP-treated mice. Format: in vivo, mouse. Conditions: MPTP 25 mg/kg i.p. day 1–5; treatment day 1–13; vs MPTP vehicle control. As for the experimental part: MPTP was injected to male C57BL/6 mice for 5 consecutive days (Figure 4A) to destroy DA neurons, and then the mice were treated with Pegasus alone or Pegasus + Benserazide compared to L-dopa alone or L-Dopa + Benserazide.
From day 1 to day 5, MPTP was administered to all the groups except Naive at a dose of 25 mg/kg, i.p., QD. Treatment with Pegasus alone (50 mg/kg, i.p., BID), a combination of Pegasus 50 mg/kg, BID + Benserazide 10 mg/kg, QD, or a combination of L-Dopa 10 mg/kg, QD + Benserazide 10 mg/kg, QD or standalone L-Dopa 10 mg/kg, QD, started on day 1 and continued until day 13. On day 13, after the first dose of Pegasus, 4 animals/time point from each group were sacrificed at 0.5, 1, 3, 6, and 12 h, and the blood and brains were collected.
The maximal muscle/grip strength of forelimbs was measured using a strength meter.

The subject of another series is microglia (IBA1). Put plainly: IBA1 immunohistochemistry of microglia. Format: in vivo, mouse. The conditions noted are these: young and old TgA53T mice, vs DMSO. An excerpt:
Neuroinflammation is one of the most important pathogeneses in PD in addition to alpha-synuclein aggregation. To examine the effects of Pegasus on glial cell activation, we performed immunohistochemistry of astrocyte and microglia from the brains of treated vs. untreated young (6–7-month-old) and old (12–13-month-old) TgA53T mice.

Series [6] is described as follows: Plasma binding by equilibrium dialysis. It counts as in vitro ADME. Conditions: mouse, rat, dog, and human plasma. From the text:
Many of the metabolites were formed after the amide cleavage of the parent, Pegasus, into the tetracycline or the DA scaffold and further biotransformation of those scaffolds. […] Both M8 and M11 are abundantly detected in the brain and the blood in rats and the relative abundance of brain–plasma is 318 and 131%, respectively. […] Furthermore, Pegasus is […] bound to mouse, rat, dog, and human plasma (Avg. 91–98%) using the equilibrium dialysis method.

As to `C[C@H]1c2ccc(NC(=O)CCC(=O)NCCc3ccc(O)c(O)c3)c(O)c2C(=O)C2=C(O)[C@]3(O)C(=O)C(C(N)=O)=C(O)CC3[C@@H](O)C21` (stereo partly shown) [Pegasus], in series [1] (young (6–7-month-old) and old (12–13-month-old) TgA53T mice), the “Cell count of TH+ neurons in the SN” value is listed as “dramatically increases the cell count”. Further, the “DA nerve terminals (TH+) in the striatum” value in [1] (young and old TgA53T mice) is reported as “dramatically increases”. In addition, the “Caspase-3 activity in tissues” value in the series with caspase-3 activity was “no apparent toxicity in organs; also recorded: no significant changes in caspase-3 activity”. Besides, in the series with alpha-synuclein, the “Protective effect on alpha-synuclein in vitro” value is on record as “prevention of alpha-synuclein misfolding”. For the same molecule, in the series with human alpha-synuclein, the “Concentration of CNS alpha-synuclein (ELISA)” value is given as “reduced”. For the same molecule, the “Visible side effects at 50 mg/kg” value in the series on TgA53T mice [2] (50 mg/kg, mice) is on record as “no visible side effects”. The “Adverse effects at 100 mg/kg” value in the series with TgA53T mice [2] (100 mg/kg, male and female 12–13 months old mice) was “some scruffiness and weakness at Day16, and one mouse showed gut toxicity at autopsy”. The Tolerated dose entry in the series with TgA53T mice [2] (TgA53T, mouse, in vivo, ip, 4 days per dose level) is on record as “up to 75 mg/kg”. In the series with TgA53T mice [2] (dose reduced to 75 mg/kg for another week), the “Adverse effects at autopsy after dose reduction” value is on record as “no adverse effects were detected”. For the same molecule, in series [3], the “Concentration of DA in the brain” value was “significantly increases”, the “Concentration of DA in the serum” value is on record as “significantly increases”, the “Concentration of HVA in the brain” value is listed as “significantly increases” and the “Concentration of HVA in the serum” value is given as “though not HVA in the serum”. In the series with TgA53T mice [4] (50 mg/kg for 3 weeks, TgA53T mice), the “Duration of improved Rotarod motor performance” value was “up to 6.5 h”. Moreover, the Rotarod motor performance entry in the series with TgA53T mice [4] (1–2 h post-injection, 50 mg/kg i.p. daily, 12–13 months old TgA53T mice, vs DMSO) was “significantly improves motor performance”. The Rotarod motor behavior result in the series with TgA53T mice [4] (2–3 h, 3–4 h and up to 5–6.5 h post-injection, 50 mg/kg i.p. daily, vs DMSO) is given as “continues to improve motor behavior”. Also, the Forelimb grip strength result in series [5] is “significantly reversed back to normal levels”. The “IBA1 staining in the hippocampus” value with microglia (IBA1) is reported as “No differences in IBA1 staining”. In [6], the “Plasma binding (Avg.)” value is 91–98%.
